Measurements from patent publication US20060100187A1, “Synergistic combinations of macrolide t-cell modulator or immunosuppressant and a retinoid” (priority 2003, published 2006).

How the values were obtained:
[1] = system: allogeneic kidney transplantation; conditions: oral administration; cited from earlier work
[2] = system: DNFB-elicited allergic contact dermatitis (contact hypersensitivity reaction); conditions: for Efficacy, global mean of differences in scores of untreated and treated test sites: erythema and induration scored 24 hours after DNFB challenge, 80 mg formulation topically at 30 minutes and 6 hours after challenge, 1% Elidel cream, 0.1% Zorac gel; for Efficacy %, single drug treatment with pimecrolimus set to 100%: relative to pimecrolimus/pimecrolimus, topical at 30 minutes and 6 hours after challenge, scored at 24 hours
Procedure: 12 days before elicitation of ACD, 17 male domestic pigs receive 500 μl of 10% 2,4-dinitrofluorobenzene (DNFB) dissolved in dimethylsulfoxide/acetone/olive oil (1:5:3 v/v/v) epicutaneously in divided volumes onto the base of both ears and onto both groins (100 μl/site) for sensitization. The challenge reaction is elicited with 15 μl of DNFB 1.0% on test sites (7 cm^2 in size) arranged on both sides of the shaved dorsolateral back.
The test sites on the right dorsolateral side are treated with 80 mg formulation twice whereas the left controlateral test sites remain untreated for comparison. The test sites are treated 30 minutes after challenge, followed by the second application at 6 hours of the same drug or, in case of combination, the other drug.

Compound: C=CC[C@@H]1/C=C(\C)C[C@H](C)C[C@H](OC)[C@H]2O[C@@](O)(C(=O)C(=O)N3CCCC[C@H]3C(=O)O[C@H](/C(C)=C/[C@@H]3CC[C@@H](O)[C@H](OC)C3)[C@H](C)[C@@H](O)CC1=O)[C@H](C)C[C@@H]2OC [tacrolimus]
- minimum effective dose (MED) [1]: 14 mg/kg

Compound: CCOC(=O)c1ccc(C#Cc2ccc3c(c2)C(C)(C)CCS3)nc1 [tazarotene]
- Efficacy, global mean of differences in scores of untreated and treated test sites [2]: 2.96
- Efficacy %, single drug treatment with pimecrolimus set to 100% [2]: 89%

Compound: {[1E-(1R,3R,4S)]}1R,9S,12S, 13R,14S,17R,18E,21S,23S,24R,25S,27R}-12-[2-(4-chloro-3-methoxycyclohexyl)-1-methylvinyl]-17-ethyl-1,14-dihydroxy-23,25-dimethoxy-13,19,21,27-tetramethyl-11, 28,dioxa-4-azatricyclo [22.3.1.0(4,9)]octacos-18-ene-2,3,10,16-tetraone [pimecrolimus]
- superiority in comparison with tazarotene/tazarotene treatment ([2]; difference of relative efficacy %): 11%
- Efficacy, global mean of differences in scores of untreated and treated test sites [2]: 3.34
- Efficacy %, single drug treatment with pimecrolimus set to 100% [2]: 100%
- inhibition of the contact hypersensitivity reaction ([2]; single drug treatment, two topical applications, scored 24 hours after challenge): 57%
